Test results taken from patent US20260258370A1, “METHOD FOR OBTAINING A NEUROMUSCULAR ORGANOID AND USE THEREOF” (Universiteit Antwerpen, priority 2021, published 2026).

Assays:
Format in all cases: cell-based, human
[1] = test system: CMT1A organoids; assay: g-ratio of myelinated axons by transmission electron microscopy in CMT1A organoids; conditions: Day 25, TEM
[2] = test system: PI3K-Akt signaling pathway; assay: p-Akt/Akt protein level ratio normalized to β-actin in treated CMT1A iPSC-derived organoids; conditions: Day 25, normalized to β-actin
[3] = test system: CMT1A organoids; assay: Myelin periodic line distance (myelin compaction) by transmission electron microscopy in CMT1A organoids

## shRNA-2: Short-hairpin RNA against human PMP22, region CDS (SEQ ID NO 10), Sigma Mission pLKO.1-library, lentivirally transduced (guide CCGGCCTGTTCTTCTGCCAACTCTTCTCGAGAAGAGTTGGCAGAAGAACAGGTTTTTG)
[1]
  g-ratio of axons: significantly increased the g-ratio
[2]
  p-Akt/Akt ratio: reduced p-Akt/Akt ratio could be reversed
[3]; high concentration (75 μL) of shRNA lentivirus
  myelin periodic line distance (myelin compaction): restored the myelin periodic line distance back to control levels
[3]; low concentration (25 μL) of shRNA lentivirus
  myelin periodic line distance (myelin compaction): partially improved myelin compaction
